Laboratory results from ChEMBL document CHEMBL1201862, “PubChem BioAssay data set” (2004).
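Results reflect a 48-hour exposure of cells in 96-well plates to compound at five concentrations. At the GI50, growth is halved.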 Activity calls are given as the source filed them. Rule as the data show it: active = GI50 up to about 1.1 µM and inactive = higher.

Key:
Test in all cases: NCI tumour cell line growth inhibition, 48 h
MDA-MB-435 = tested on: MDA-MB-435
T47D = tested on: T47D
Hs-578T = tested on: Hs-578T
SNB-78 = tested on: SNB-78
XF498 = tested on: XF498
DMS-114 = tested on: DMS-114
M19-MEL = tested on: M19-MEL
DMS-273 = tested on: DMS-273
RXF 631 = tested on: RXF 631

Measured: GI50

O=C(O)c1cc(-c2ccc3cc4c(cc3c2)OCO4)nc2ccccc12
inactive: MDA-MB-435 85.3 µM | T47D 54.8 µM | Hs-578T 49.2 µM

CCC1(OC(=O)CN)C(=O)OCc2c1cc1n(c2=O)Cc2cc3ccccc3nc2-1 (centres undefined)
active: MDA-MB-435 0.0564 µM | T47D 0.012 µM | SNB-78 0.738 µM | XF498 0.147 µM | DMS-114 0.00989 µM | M19-MEL 0.123 µM | DMS-273 0.00471 µM
inactive: Hs-578T 6.14 µM

CCN1CCC(O)(/C=C/c2ccc(C)cc2)C(C(=O)/C=C/c2ccc(C)cc2)C1 (centres undefined)
inactive: MDA-MB-435 2.93 µM | T47D 2.82 µM | Hs-578T 1.86 µM

CCCS(=O)(=O)O
inactive: MDA-MB-435 > 100 µM | T47D > 100 µM | Hs-578T > 100 µM

CCN(CC)C(=O)c1cc(OC(C)C)ccc1-c1c(C)cc(OC(C)C)c(OC)c1OC
inactive: XF498 25.8 µM | DMS-114 36.5 µM | DMS-273 41.6 µM

O=C1CN2C(Cl)(Cl)C2(c2ccccc2)c2cc(Cl)ccc2N1CC1CC1 (centres undefined)
inactive: DMS-114 36.2 µM | M19-MEL 35.4 µM | DMS-273 25.5 µM

COc1ccc(C2N(NC(=O)c3ccncc3)C(=O)CS2(=O)=O)cc1F (centres undefined)
inactive: SNB-78 > 100 µM | XF498 > 100 µM | DMS-114 > 100 µM | RXF 631 > 100 µM | DMS-273 > 100 µM

Cc1ccc(NC(=S)NNC(=O)c2cc(-c3ccccc3)nc3ccccc23)cc1C
inactive: MDA-MB-435 24 µM | Hs-578T 36.1 µM
active: T47D 0.853 µM

O=C(NC1C/C(=N/O)c2c(Br)sc(Br)c21)C(F)(F)F (centres undefined)
inactive: MDA-MB-435 47.2 µM | T47D 20.7 µM | Hs-578T 11.2 µM

C=CCNC(=O)N(CCC)CCCCC(NC(C)=O)C(=O)NCc1ccccc1 (centres undefined)
inactive: XF498 > 100 µM | DMS-114 > 100 µM | M19-MEL > 100 µM | DMS-273 > 100 µM

COc1ccc(C(CC(=O)c2ccc(O)cc2)C(C(=O)c2ccc(O)cc2)C(c2ccc(OC)cc2)C2C(=O)NC(=S)NC2=O)cc1 (centres undefined)
inactive: MDA-MB-435 25.5 µM | Hs-578T 26.7 µM

CC(C)(C)C(=O)OCC1C(=O)OCC1C(=O)N1Cc2cc3ccccc3nc2C1 (centres undefined)
inactive: MDA-MB-435 3.9 µM | T47D 2.38 µM | SNB-78 1.53 µM | Hs-578T 15.3 µM | DMS-114 4.81 µM | M19-MEL 3.54 µM | DMS-273 3.04 µM

COC1OC(CS(=O)(=O)O)C(O)C(O)C1O (centres undefined)
inactive: MDA-MB-435 > 100 µM | T47D > 100 µM | Hs-578T > 100 µM

C/C(=C1\N=C(c2ccccc2)OC1=O)c1ccccc1
inactive: MDA-MB-435 > 100 µM | T47D > 100 µM | Hs-578T > 100 µM

Cc1ccc(CCC(=O)C(=O)O)s1
inactive: SNB-78 > 100 µM | XF498 > 100 µM | DMS-114 > 100 µM | M19-MEL > 100 µM | RXF 631 > 100 µM | DMS-273 > 100 µM

CC(C)OP(=O)(OC(C)C)c1nn(-c2ccc([N+](=O)[O-])cc2)c(=N)s1
inactive: XF498 89.5 µM | DMS-114 56.9 µM | M19-MEL > 100 µM

NC1CCCCC1
inactive: SNB-78 292 µM | DMS-114 > 56.2 µM | M19-MEL 187 µM | DMS-273 189 µM

CC(=O)[C@H]1CCC2[C@@H]3CC=C4C(O)C(OS(=O)(=O)O)CC[C@]4(C)C3CC[C@@]21C (some centres undefined)
inactive: SNB-78 > 100 µM | DMS-114 > 100 µM | M19-MEL > 100 µM | DMS-273 > 100 µM

O=C(N/N=C/C=C/c1ccccc1)[C@H](O)[C@@H](O)C(=O)N/N=C/C=C/c1ccccc1
inactive: SNB-78 > 100 µM | DMS-114 > 100 µM | M19-MEL > 100 µM | DMS-273 > 100 µM

CO[C@H]1C=C[C@@]23c4cc5c(cc4CO[C@]2(O)CN(C)[C@H]3C1)OCO5
inactive: MDA-MB-435 > 100 µM | T47D > 100 µM | Hs-578T > 100 µM

CC1C(=O)N(c2ccccc2)NC12CCCc1ccccc12 (centres undefined)
inactive: MDA-MB-435 > 100 µM | T47D > 100 µM | Hs-578T > 100 µM

C=CC(=O)NC(O)(C(=O)OCC)C(F)(F)F (centres undefined)
inactive: MDA-MB-435 > 100 µM | T47D > 100 µM | Hs-578T > 100 µM

CN(C)c1ccc(/C=C2/SC(=S)NC2=O)cc1
inactive: MDA-MB-435 > 100 µM | T47D > 100 µM | Hs-578T > 100 µM

Cc1[nH]c2ncn(/N=C/c3ccccc3O)c(=N)c2c1Cc1ccccc1
inactive: MDA-MB-435 18.5 µM | T47D > 100 µM | Hs-578T 96.2 µM

O=C1CCC(c2ccccc2)=NN1c1nsc2ccccc12
inactive: SNB-78 > 100 µM | DMS-114 62.7 µM | M19-MEL > 100 µM | DMS-273 95.9 µM

CC(SC(=S)N1CCOCC1)C(=O)Nc1nnc(-c2ccc(Cl)cc2)o1 (centres undefined)
inactive: MDA-MB-435 40.2 µM | T47D 51.3 µM | Hs-578T > 100 µM

Cc1cc2c(ccc[n+]2[O-])[n+]([O-])c1
inactive: SNB-78 > 100 µM | XF498 > 100 µM | DMS-114 > 100 µM | M19-MEL > 100 µM | DMS-273 > 100 µM

COc1cc([C@@H]2c3cc4c(cc3[C@@H](c3c(O)cc(O)c5c3O[C@H](c3ccc(O)c(O)c3)[C@@H](O)C5)[C@H]3COC(=O)[C@H]23)OCO4)cc(OC)c1O
inactive: MDA-MB-435 > 100 µM | T47D > 100 µM | Hs-578T > 100 µM

COc1cc2ccc(CC(N)=O)cc2cc1OC
inactive: SNB-78 > 100 µM | XF498 > 100 µM | DMS-114 > 100 µM | M19-MEL > 100 µM | RXF 631 > 100 µM | DMS-273 > 100 µM

COc1ccc(/C=N/n2c(C)nc3c(sc(=S)n3-c3ccccc3)c2=O)cc1
inactive: M19-MEL 63.2 µM

CC1[C@@H]2CC=C3C4CCC5Cc6nc7c(nc6C[C@@]5(C)C4CC(=O)[C@]32CO[C@@]1(O)C(O)CC(C)(C)O)CC1CCC2C3=C[C@H]4O[C@@]5(O[C@@](C)(CO)C[C@@H]5O)C(C)[C@@]4(O)[C@]3(C)[C@@H](O)CC2[C@]1(C)C7 (some centres undefined)
active: SNB-78 0.00146 µM | XF498 0.00242 µM | DMS-114 0.000513 µM | M19-MEL 0.237 µM | DMS-273 < 0.00036 µM

Clc1ccc(-c2nnc(-c3nsc4ccccc34)o2)cc1
inactive: SNB-78 46.2 µM | DMS-114 65.6 µM | M19-MEL > 100 µM | DMS-273 26.6 µM

NC(Cc1c[nH]c2ccccc12)C(=O)O (stereo not drawn) [DL-TRYPTOPHAN]
inactive: SNB-78 > 300 µM | DMS-114 > 300 µM | M19-MEL > 300 µM | DMS-273 > 300 µM
